One cell line from the supplement of paper PMC10307832 can be followed below.

Assay in all cases: relative viability (nuclei count vs DMSO), 5 days (fraction); higher = more cells survive
Compound in the assay “Etoposide + Linsitinib”: COc1cc([C@@H]2c3cc4c(cc3[C@@H](O[C@@H]3O[C@@H]5CO[C@@H](C)O[C@H]5[C@H](O)[C@H]3O)[C@H]3COC(=O)[C@H]23)OCO4)cc(OC)c1O [Etoposide] + C[C@]1(O)C[C@@H](c2nc(-c3ccc4ccc(-c5ccccc5)nc4c3)c3c(N)nccn32)C1 [Linsitinib] (partner 1 µM)
The essentials:
(§1)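 Each reported value is a median over duplicate plates. It expresses relative viability: treated-well nuclei count divided by vehicle-well nuclei count. Lung cancer cell lines in 1536-well plates were dosed by pin tool a day after seeding, alone with one drug or with a fixed anchor-drug dose plus five library-drug doses (not always all listed) in √10 steps, and nuclei were counted after 5 days.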

Compound in the assay “Etoposide + Tozasertib”: COc1cc([C@@H]2c3cc4c(cc3[C@@H](O[C@@H]3O[C@@H]5CO[C@@H](C)O[C@H]5[C@H](O)[C@H]3O)[C@H]3COC(=O)[C@H]23)OCO4)cc(OC)c1O [Etoposide] + Cc1cc(Nc2cc(N3CCN(C)CC3)nc(Sc3ccc(NC(=O)C4CC4)cc3)n2)n[nH]1 [Tozasertib] (partner 0.1 µM)
The essentials:
as §1

Compound in the assay “Bleomycin + OSI-027”: CC1=C(N=C(N=C1N)[C@H](CC(=O)N)NC[C@@H](C(=O)N)N)C(=O)N[C@@H]([C@H](C2=CN=CN2)OC3C(C(C(C(O3)CO)O)O)OC4C(C(C(C(O4)CO)O)OC(=O)N)O)C(=O)N[C@H](C)[C@H]([C@H](C)C(=O)N[C@@H]([C@@H](C)O)C(=O)NCCC5=NC(=CS5)C6=NC(=CS6)C(=O)NCCC[S+](C)C)O [Bleomycin] + COc1cccc2cc(-c3nc([C@H]4CC[C@H](C(=O)O)CC4)n4ncnc(N)c34)[nH]c12 [OSI-027] (partner 0.5 µM)
The settings on record: main component drawn. The method, boiled down:
as §1

Compound in the assay “Bleomycin + Navitoclax”: CC1=C(N=C(N=C1N)[C@H](CC(=O)N)NC[C@@H](C(=O)N)N)C(=O)N[C@@H]([C@H](C2=CN=CN2)OC3C(C(C(C(O3)CO)O)O)OC4C(C(C(C(O4)CO)O)OC(=O)N)O)C(=O)N[C@H](C)[C@H]([C@H](C)C(=O)N[C@@H]([C@@H](C)O)C(=O)NCCC5=NC(=CS5)C6=NC(=CS6)C(=O)NCCC[S+](C)C)O [Bleomycin] + CC1(C)CCC(c2ccc(Cl)cc2)=C(CN2CCN(c3ccc(C(=O)NS(=O)(=O)c4ccc(N[C@H](CCN5CCOCC5)CSc5ccccc5)c(S(=O)(=O)C(F)(F)F)c4)cc3)CC2)C1 [Navitoclax] (partner 0.5 µM)
The settings on record: main component drawn. The method, boiled down: as §1

As for UMC-11, the relative viability came to 0.962 with Etoposide + Linsitinib (first compound 0.01 µM); 1.05 in the assay with Etoposide + Linsitinib (first compound 0.03162 µM); 0.493 in the assay with Etoposide + Linsitinib (first compound 0.3162 µM); 0.302 with Etoposide + Linsitinib (first compound 1 µM); 0.209 with Etoposide + Tozasertib (first compound 0.01 µM); 0.205 with Etoposide + Tozasertib (first compound 0.03162 µM). Moreover, the relative viability with Etoposide + Tozasertib (first compound 0.1 µM) amounted to 0.186; with Etoposide + Tozasertib (first compound 0.3162 µM), 0.206; with Etoposide + Tozasertib (first compound 1 µM) it was 0.235; with Bleomycin + OSI-027 (first compound 0.01 µM), 0.403; with Bleomycin + OSI-027 (first compound 0.03162 µM) it was 0.497; in the assay with Bleomycin + OSI-027 (first compound 0.1 µM) it was 0.482. Further, the relative viability with Bleomycin + OSI-027 (first compound 0.3162 µM) stood at 0.393; in the assay with Bleomycin + OSI-027 (first compound 1 µM), 0.353; with Bleomycin + Navitoclax (first compound 0.01 µM), 0.376; with Bleomycin + Navitoclax (first compound 0.03162 µM) it was 0.264; with Bleomycin + Navitoclax (first compound 0.1 µM) it was 0.286; with Bleomycin + Navitoclax (first compound 0.3162 µM), 0.22. Also, the relative viability with Bleomycin + Navitoclax (first compound 1 µM) was determined as 0.205.
